# Laboratory results reported in US12570642B2, “GLP-IR modulating compounds” (Gilead Sciences, Inc., priority 2021, dated 2026).
# Biological target: GLP-1R (Homo sapiens, UniProt P43220)
# Test: GLP-1R Activation - cAMP Assay
# Format: cell-based
# Settings: cAMP increase in CHO cells stably expressing GLP-1R; each compound run on one of the two cAMP assays (Assay 1 or Assay 2, not specified)
# Method in brief: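 cAMP rise read by HTRF after 30 min agonist exposure (10-point titration, 37 °C) in HBSS/20 mM Hepes/0.1% BSA, following 1 h pre-incubation. Cells: stable GLP-1R CHO line, 1,000/well, seeded overnight. Sigmoidal fit of response vs log concentration gives EC50.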
# Sequence of GLP-1R (P43220 24-463): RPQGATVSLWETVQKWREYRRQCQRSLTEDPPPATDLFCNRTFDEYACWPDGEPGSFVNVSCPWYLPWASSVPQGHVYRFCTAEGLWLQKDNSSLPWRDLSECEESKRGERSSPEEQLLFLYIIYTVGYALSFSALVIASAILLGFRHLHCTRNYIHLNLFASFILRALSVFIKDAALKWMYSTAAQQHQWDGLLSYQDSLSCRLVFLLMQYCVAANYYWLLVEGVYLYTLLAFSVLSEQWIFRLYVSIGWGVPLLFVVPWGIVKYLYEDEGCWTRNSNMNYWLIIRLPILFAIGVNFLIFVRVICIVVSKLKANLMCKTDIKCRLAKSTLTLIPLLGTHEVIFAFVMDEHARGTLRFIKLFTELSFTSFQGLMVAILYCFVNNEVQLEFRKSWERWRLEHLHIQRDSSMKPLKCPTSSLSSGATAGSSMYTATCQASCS
row,SMILES,EC50 [pM]
1,"Cc1cc(Cc2nc3ccc(C(=O)O)cc3n2[C@@H]2COCC2(C)C)c(F)cc1-c1ccnc(OCc2ccc(C#N)cc2)n1 [Example 178, (S)-2-(4-(2-((4-cyanobenzyl)oxy)pyrimidin-4-yl)-2-fluoro-5-methylbenzyl)-1-(4,4-dimethyltetrahydrofuran-3-yl)-1H-benzo[d]imidazole-6-carboxylic Acid]",499
2,"N#Cc1ccc(COc2cccc(-c3cc(F)c(Cc4nc5ccc(C(=O)O)cc5n4[C@@H]4COC[C@@H]4COC(F)F)cc3F)n2)c(F)c1 [Example 185, 2-(4-(6-((4-cyano-2-fluorobenzyl)oxy)pyridin-2-yl)-2,5-difluorobenzyl)-1-((3S,4R)-4-((difluoromethoxy)methyl)tetrahydrofuran-3-yl)-1H-benzo[d]imidazole-6-carboxylic Acid]",594
3,"N#Cc1ccc(COc2cccc(-c3cc(F)c(Cc4nc5ccc(C(=O)O)cc5n4[C@@H]4C[C@@H]5CC[C@H]4O5)cc3F)n2)c(F)c1 [Example 187, 1-((1R,2R,4S)-7-oxabicyclo[2.2.1]heptan-2-yl)-2-(4-(6-((4-cyano-2-fluorobenzyl)oxy)pyridin-2-yl)-2,5-difluorobenzyl)-1H-benzo[d]imidazole-6-carboxylic acid]",391
4,"N#Cc1ccc(COc2cccc(-c3cc(F)c(Cc4nc5ccc(C(=O)O)cc5n4[C@@H]4COC[C@@H]4C4CC4)cc3F)n2)c(F)c1 [Example 191, 2-(4-(6-((4-cyano-2-fluorobenzyl)oxy)pyridin-2-yl)-2,5-difluorobenzyl)-1-((3S,4R)-4-cyclopropyltetrahydrofuran-3-yl)-1H-benzo[d]imidazole-6-carboxylic acid]",353
5,"N#Cc1ccc(COc2cccc(-c3cc(F)c(Cc4nc5ccc(C(=O)O)cc5n4[C@H]4COC[C@H]4C4CC4)cc3F)n2)c(F)c1 [Example 192, 2-(4-(6-((4-cyano-2-fluorobenzyl)oxy)pyridin-2-yl)-2,5-difluorobenzyl)-1-((3R,4S)-4-cyclopropyltetrahydrofuran-3-yl)-1H-benzo[d]imidazole-6-carboxylic acid]",444
6,"CC(F)(F)c1ccc(COc2cccc(-c3cc(F)c(Cc4nc5ccc(C(=O)O)cc5n4[C@@H]4COCC4(C)C)cc3F)n2)nc1 [Example 195, (S)-2-(4-(6-((5-(1,1-difluoroethyl)pyridin-2-yl)methoxy)pyridin-2-yl)-2,5-difluorobenzyl)-1-(4,4-dimethyltetrahydrofuran-3-yl)-1H-benzo[d]imidazole-6-carboxylic acid]",539
7,"CC1(C)COC[C@H]1n1c(Cc2c(F)cc(-c3ccnc(OCc4ccc(Cl)cc4F)n3)c(F)c2F)nc2c(F)cc(C(=O)O)cc21 [Example 196, (S)-2-(4-(2-((4-chloro-2-fluorobenzyl)oxy)pyrimidin-4-yl)-2,3,6-trifluorobenzyl)-1-(4,4-dimethyltetrahydrofuran-3-yl)-4-fluoro-1H-benzo[d]imidazole-6-carboxylic acid]",508
8,"CC[C@@H]1OCC[C@H]1n1c(Cc2cc(F)c(-c3cccc(OCc4ccc(C#N)cc4F)n3)cc2F)nc2ccc(C(=O)O)cc21 [Example 197, 2-(4-(6-((4-cyano-2-fluorobenzyl)oxy)pyridin-2-yl)-2,5-difluorobenzyl)-1-((2S,3R)-2-ethyltetrahydrofuran-3-yl)-1H-benzo[d]imidazole-6-carboxylic acid]",6620
9,"CC1(C)COC[C@H]1n1c(Cc2cc(F)c(-c3ccnc(OCc4ccc(C#N)cc4F)n3)cc2F)nc2ccc(C(=O)O)cc21 [Example 198, (S)-2-(4-(2-((4-cyano-2-fluorobenzyl)oxy)pyrimidin-4-yl)-2,5-difluorobenzyl)-1-(4,4-dimethyltetrahydrofuran-3-yl)-1H-benzo[d]imidazole-6-carboxylic acid]",508
10,"CC1(C)CC(n2c(Cc3cc(F)c(-c4cccc(OCc5ccc(C#N)cc5F)n4)cc3F)nc3ccc(C(=O)O)cc32)C(C)(C)O1 (stereo not drawn) [Example 199, 2-(4-(6-((4-cyano-2-fluorobenzyl)oxy)pyridin-2-yl)-2,5-difluorobenzyl)-1-(2,2,5,5-tetramethyltetrahydrofuran-3-yl)-1H-benzo[d]imidazole-6-carboxylic acid]",90900
11,"CC1(C)COCC1n1c(Cc2cc(F)c(-c3ccnc(OCc4ccc(C(F)(F)F)cc4F)n3)cc2F)nc2c(F)cc(C(=O)O)cc21 (stereo not drawn) [Example 200, 2-(2,5-difluoro-4-(2-((2-fluoro-4-(trifluoromethyl)benzyl)oxy)pyrimidin-4-yl)benzyl)-1-(4,4-dimethyltetrahydrofuran-3-yl)-4-fluoro-1H-benzo[d]imidazole-6-carboxylic acid]",508

# Now those with a lower EC50, led by results:
row,EC50 [pM],SMILES
1,21,"CC1(C)COC[C@H]1n1c(Cc2cc(F)c(-c3ccc(F)c(OCc4ccc(-n5ccnn5)cc4)n3)cc2F)nc2c(F)cc(C(=O)O)cc21 [Example 177, (S)-2-(4-(6-((4-(1H-1,2,3-triazol-1-yl)benzyl)oxy)-5-fluoropyridin-2-yl)-2,5-difluorobenzyl)-1-(4,4-dimethyltetrahydrofuran-3-yl)-4-fluoro-1H-benzo[d]imidazole-6-carboxylic Acid]"
2,64,"Cc1cc(Cc2nc3ccc(C(=O)O)cc3n2[C@@H]2COCC2(C)C)c(F)cc1-c1cccc(OCc2ccc(C#N)cc2)n1 [Example 179, (S)-2-(4-(6-((4-cyanobenzyl)oxy)pyridin-2-yl)-2-fluoro-5-methylbenzyl)-1-(4,4-dimethyltetrahydrofuran-3-yl)-1H-benzo[d]imidazole-6-carboxylic Acid]"
3,89,"Cc1cc(Cc2nc3ccc(C(=O)O)cc3n2[C@@H]2COCC2(C)C)c(F)cc1-c1ccc(F)c(OCc2ccc(C#N)cc2)n1 [Example 180, (S)-2-(4-(6-((4-cyanobenzyl)oxy)-5-fluoropyridin-2-yl)-2-fluoro-5-methylbenzyl)-1-(4,4-dimethyltetrahydrofuran-3-yl)-1H-benzo[d]imidazole-6-carboxylic Acid]"
4,25,"CC1(C)COC[C@H]1n1c(Cc2cc(F)c(-c3ccc(F)c(OCc4ccc(-n5ccnn5)cc4)n3)cc2F)nc2ccc(C(=O)O)cc21 [Example 181, (S)-2-(4-(6-((4-(1H-1,2,3-triazol-1-yl)benzyl)oxy)-5-fluoropyridin-2-yl)-2,5-difluorobenzyl)-1-(4,4-dimethyltetrahydrofuran-3-yl)-1H-benzo[d]imidazole-6-carboxylic Acid]"
5,178,"CC1(C)COC[C@H]1n1c(Cc2cc(F)c(-c3ccnc(OCc4ccc(-n5ccnn5)cc4)n3)cc2F)nc2ccc(C(=O)O)cc21 [Example 182, (S)-2-(4-(2-((4-(1H-1,2,3-triazol-1-yl)benzyl)oxy)pyrimidin-4-yl)-2,5-difluorobenzyl)-1-(4,4-dimethyltetrahydrofuran-3-yl)-1H-benzo[d]imidazole-6-carboxylic Acid]"
6,129,"CC1(C)COC[C@H]1n1c(Cc2cc(F)c(-c3cccc(OCc4ccc(-n5ccnn5)cc4)n3)cc2F)nc2ccc(C(=O)O)cc21 [Example 183, (S)-2-(4-(6-((4-(1H-1,2,3-triazol-1-yl)benzyl)oxy)pyridin-2-yl)-2,5-difluorobenzyl)-1-(4,4-dimethyltetrahydrofuran-3-yl)-1H-benzo[d]imidazole-6-carboxylic Acid]"
7,18,"CC1(C)COC[C@H]1n1c(Cc2cc(F)c(-c3cccc(OCc4ccc(-n5ccnn5)cc4)n3)cc2F)nc2c(F)cc(C(=O)O)cc21 [Example 186, (S)-2-(4-(6-((4-(1H-1,2,3-triazol-1-yl)benzyl)oxy)pyridin-2-yl)-2,5-difluorobenzyl)-1-(4,4-dimethyltetrahydrofuran-3-yl)-4-fluoro-1H-benzo[d]imidazole-6-carboxylic acid]"
8,32,"CC1(C)COC[C@H]1n1c(Cc2cc(F)c(-c3ccc(F)c(OCc4ccc(C#N)cc4)n3)cc2F)nc2ccc(C(=O)O)cc21 [Example 188, (S)-2-(4-(6-((4-cyanobenzyl)oxy)-5-fluoropyridin-2-yl)-2,5-difluorobenzyl)-1-(4,4-dimethyltetrahydrofuran-3-yl)-1H-benzo[d]imidazole-6-carboxylic acid]"
9,149,"N#Cc1ccc(COc2cccc(-c3cc(F)c(Cc4nc5ccc(C(=O)O)cc5n4[C@H]4COC[C@@H]4C4CC4)cc3F)n2)c(F)c1 [Example 189, 2-(4-(6-((4-cyano-2-fluorobenzyl)oxy)pyridin-2-yl)-2,5-difluorobenzyl)-1-((3R,4R)-4-cyclopropyltetrahydrofuran-3-yl)-1H-benzo[d]imidazole-6-carboxylic acid]"
10,61,"N#Cc1ccc(COc2cccc(-c3cc(F)c(Cc4nc5ccc(C(=O)O)cc5n4[C@@H]4COC[C@H]4C4CC4)cc3F)n2)c(F)c1 [Example 190, 2-(4-(6-((4-cyano-2-fluorobenzyl)oxy)pyridin-2-yl)-2,5-difluorobenzyl)-1-((3S,4S)-4-cyclopropyltetrahydrofuran-3-yl)-1H-benzo[d]imidazole-6-carboxylic acid]"
11,132,"CC1(C)COC[C@H]1n1c(Cc2cc(F)c(-c3ccnc(OCc4ccc(C#N)cc4)n3)cc2F)nc2ccc(C(=O)O)cc21 [Example 193, (S)-2-(4-(2-((4-cyanobenzyl)oxy)pyrimidin-4-yl)-2,5-difluorobenzyl)-1-(4,4-dimethyltetrahydrofuran-3-yl)-1H-benzo[d]imidazole-6-carboxylic acid]"
12,265,"CC1(C)COC[C@H]1n1c(Cc2cc(F)c(-c3ccnc(OCc4ccc(C#N)cc4)n3)cc2F)nc2c(F)cc(C(=O)O)cc21 [Example 194, (S)-2-(4-(2-((4-cyanobenzyl)oxy)pyrimidin-4-yl)-2,5-difluorobenzyl)-1-(4,4-dimethyltetrahydrofuran-3-yl)-4-fluoro-1H-benzo[d]imidazole-6-carboxylic acid]"
13,28,"CC1(C)COC[C@H]1n1c(Cc2cc(F)c(-c3cccc(OCc4ccc(Cl)cc4F)n3)cc2F)nc2c(F)cc(C(=O)O)cc21 [Example 201, (S)-2-(4-(6-((4-chloro-2-fluorobenzyl)oxy)pyridin-2-yl)-2,5-difluorobenzyl)-1-(4,4-dimethyltetrahydrofuran-3-yl)-4-fluoro-1H-benzo[d]imidazole-6-carboxylic acid]"
